Source: patent publication US20090075867A1, “Triazine compounds and compositions thereof for the treatment of cancers” (priority 2005, published 2009)

Legend:
[1] = tested on: CAKI-2, human kidney cell; assay: In vitro cytotoxicity (MTT) on CAKI-2; type: cell-based
Experimental: (§1) This assay was performed to determine the effect of compounds of the present invention on cell cytotoxicity. Cells were incubated in presence or absence of compounds in their respective conditioned media. […] The supernatant was discarded and 100 μl of dimethylsulfoxide (DMSO) was added. Absorbance was read at […] with an ELISA Tecan SUNRISE™ plate reader. The control group consisted of cells without compounds and is referred to as 100% of viable cells. IC50 was determined using PRISM® software.
(§2) The predictive utility of cell-based cytotoxicity assays to assess the potential in vivo anticancer activity of compounds with selected cancer cell lines is well established in the art and the use of whole cells, instead of isolated protein receptors or enzymes, provides a more reliable determination of activity. See, for example, Paull et al. J. Natl. Cancer Inst. 81:1088-1092 (1989); Monks et al. J. Natl. Cancer Inst. 83:757-766 (1991); Bandes et al. J. Natl. Cancer Inst. 86:770-775 (1994); and Kamate et al. Intl. J. Cancer 100:571-579 (2002).

[2] = tested on: B16F10, murine melanoma cell; assay: In vitro cytotoxicity (MTT) on B16F10; type: cell-based; details: Mus musculus, B16-F10
Experimental: as §1, §2

Hep-G2, human liver cell = assay: In vitro cytotoxicity (MTT) on Hep-G2; type: cell-based
Experimental: as §1, §2

[3] = tested on: PBML, Peripheral Blood Mononuclear Leukocytes; assay: In vitro cytotoxicity (MTT) on PBML; type: cell-based; details: Leukocyte
Experimental: as §1, §2

[4] = tested on: PC-3, human prostate carcinoma cell; assay: In vitro cytotoxicity (MTT) on PC-3; type: cell-based
Experimental: as §1, §2

[5] = tested on: P815, murine mastocytoma cell; assay: In vitro cytotoxicity (MTT) on P815; type: cell-based; details: Mus musculus
Experimental: as §1, §2

[6] = tested on: NHDF, Normal Human Dermal Fibroblast; assay: In vitro cytotoxicity (MTT) on NHDF; type: cell-based
Experimental: as §1, §2

DA-3 = assay: In vitro cytotoxicity (MTT) on DA-3; type: cell-based, BALB/c mice; details: Mus musculus
Experimental: as §1, §2
The syngeneic tumor DMBA3 (DA-3, breast carcinoma model) arose from a preneoplastic lesion treated with 7,12-dimethylbenzanthracene in female BALB/c mice. DA-3 cells were grown as monolayer cultures in plastic flasks in RPMI-1640 containing 0.1 mM nonessential amino acids, 0.1 μM sodium pyruvate, 2 mM L-glutamine. This was further supplemented with 50 μM 2-mercaptoethanol and 10% fetal bovine serum. The DA-3 tumors were serially passage in vivo by intradermal inoculation of 5×10^5 viable tumor cells to produce localized tumors in 6- to 8-week old BALB/c mice. The animals were then serially monitored by manual palpation for evidence of tumor. Mice were treated at day 11, 18 and 25 with cyclophosphamide (100 mg/kg) and at day 11, 12, 13, 15, 18, 20, 22, 25, 27 and 29 with compound 1, 2, 3 or 8 (50 mg/kg). Mice were sacrificed at day 43. Serial tumor volume was obtained by bi-dimensional diameter measurements with calipers, using the formula 0.4 (a×b^2) where “a” was the major tumor diameter and “b” the minor perpendicular diameter. […] The National Cancer Institute (USA) defines the product as effective if T/C is ≦40%.

B16F10 lung metastases = type: in vivo; details: FIG. 3; 50 mg/kg i.v. on day -3, -2, -1, 3, 5 and 7; p<0.001
Experimental: Female 6-8-week old C57BL/6 mice were injected intravenously on day 0 with 1-2.5×10^5 B16F10 melanoma cells from ATCC (source of cell culture, Dr. I. J. Fidler). B16F10 melanoma cells are a highly metastatic cell line which preferentially forms nodules in the lungs. Cells were cultured in DMEM supplemented with 10% fetal bovine serum. […] Fourteen days after inoculation, mice were sacrificed and their lungs were removed, rinsed in PBS, and placed in Bouin's fixative. The number of metastatic nodules (black colonies) on the surface of the lungs were counted.

Row | SMILES | IC50 ([1]; 24-hour cell culture) | IC50 ([1]; 72-hour cell culture) | IC50 ([2]; 24-hour cell culture) | IC50 ([2]; 72-hour cell culture) | IC50 (Hep-G2, human liver cell; HepG2, 24-hour cell culture) | IC50 (Hep-G2, human liver cell; HepG2, 72-hour cell culture) | IC50 ([3]; 24-hour cell culture) | IC50 ([3]; 72-hour cell culture) | IC50 ([4]; 24-hour cell culture) | IC50 ([4]; 72-hour cell culture) | IC50 ([5]; 24-hour cell culture) | IC50 ([5]; 72-hour cell culture) | IC50 ([6]; 24-hour cell culture) | IC50 ([6]; 72-hour cell culture) | IC50 (DA-3; 24-hour cell culture) | IC50 (DA-3; 72-hour cell culture) | inhibition of the number of tumor nodules in lungs (B16F10 lung metastases)
1 | Oc1ccc(CCNc2nc(NCCNc3nc(NCCc4ccc(O)cc4)nc(Nc4ccccc4)n3)nc(Nc3ccccc3)n2)cc1 [Compound 1] | > 40 µM | 15 µM | 6 µM | 6 µM | 19 µM | 23 µM | 98 µM | 45 µM | 8.3 µM | 8.3 µM | 34 µM | 34 µM | > 100 µM | 16 µM | 4 µM | 4.2 µM | significant inhibition
2 | Nc1ccc(CCNc2nc(NCCNc3nc(NCCc4ccc(N)cc4)nc(Nc4cccc(N)c4)n3)nc(Nc3cccc(N)c3)n2)cc1 [Compound 3] | > 40 µM | – | 4 µM | 6 µM | > 40 µM | – | > 100 µM | > 100 µM | > 100 µM | 15 µM | 33 µM | 3 µM | > 100 µM | > 100 µM | – | – | –
3 | Nc1cccc(Nc2nc(NCCO)nc(Nc3ccc(Nc4nc(NCCO)nc(Nc5cccc(N)c5)n4)cc3)n2)c1 [Compound 4] | – | – | 12 µM | 37 µM | – | – | 100 µM | > 100 µM | 78 µM | 37 µM | 86 µM | 32 µM | > 100 µM | > 100 µM | – | – | –
4 | Nc1cccc(Nc2nc(N)nc(Nc3cccc(Nc4nc(N)nc(Nc5cccc(N)c5)n4)c3)n2)c1 [Compound 5] | – | – | 8.5 µM | 39 µM | – | – | > 100 µM | > 100 µM | 50 µM | 26 µM | > 100 µM | 44.7 µM | > 100 µM | 78 µM | 20 µM | – | –
5 | Nc1cccc(Nc2nc(NCCO)nc(Nc3cccc(Nc4nc(NCCO)nc(Nc5cccc(N)c5)n4)c3)n2)c1 [Compound 6] | – | – | 2.6 µM | – | – | – | > 100 µM | > 100 µM | 63 µM | – | > 100 µM | > 100 µM | > 100 µM | > 100 µM | 30 µM | – | –
6 | CN(C)c1nc(NCCc2ccc(Nc3nc(Nc4cccc(N)c4)nc(N(C)C)n3)cc2)nc(Nc2cccc(N)c2)n1 [Compound 7] | – | – | 2.2 µM | 3 µM | – | – | > 100 µM | 79 µM | 85 µM | 8 µM | 20 µM | 1.3 µM | > 100 µM | > 100 µM | – | – | –
7 | Nc1cccc(Nc2nc(NCCO)nc(NCc3cccc(F)c3)n2)c1 [Compound 9] | – | – | > 100 µM | 91 µM | – | – | > 100 µM | > 100 µM | > 100 µM | > 100 µM | > 100 µM | 43 µM | > 100 µM | > 100 µM | – | – | –
8 | CC(Nc1nc(Nc2cccc(N)c2)nc(Nc2cccc(N)c2)n1)c1cccc(N)c1 (stereo not drawn) [Compound 10] | – | – | 62 µM | 36 µM | – | – | > 100 µM | > 100 µM | 74 µM | – | > 100 µM | 36.6 µM | > 100 µM | > 100 µM | > 100 µM | – | significant inhibition
9 | Nc1cccc(Nc2nc(NCCNc3nc(Nc4cccc(N)c4)nc(Nc4cccc(O)c4)n3)nc(Nc3cccc(O)c3)n2)c1 [Compound 11] | – | – | 1.4 µM | 6.3 µM | – | – | – | – | 4.4 µM | 4.9 µM | 21.2 µM | 4.8 µM | – | – | – | – | –
